# Results as given in patent US20220009894A1, “1,2,3,4-TETRAHYDROQUINOXALINE DERIVATIVE, PREPARATION METHOD THEREFOR AND APPLICATION THEREOF” (Abbisko Therapeutics Co., Ltd., priority 2019, published 2022).
# Legend:
# RORγt = target: T1, RORγt (Homo sapiens, UniProt P51449); test: RORγt cellular reporter gene detection assay; type: cell-based; conditions: 24 hrs; for EC50: HEK 293 cells co-transfected with pFN26A-RORγt-LBD and pG14.35, in presence of antagonist Ursolic acid, top concentration 50 μM; for Cellular Reporter Assay Amax: upper activation limit, HEK 293 cells, in presence of antagonist Ursolic acid;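 on Cellular Reporter Assay Amax: Ursolic Acid added as 5 µL of 20 µM medium per well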
# T1 construct: The plasmid of pFN26A-RORγt-LBD and pG14.35 (Promega, Cat. No. E1370) were co-transfected into HEK 293 cells; expressed in transfected cells; host or cells: HEK 293 cells (Cat. No. GNHu18)
# T1 sequence (P51449 269-508 limits assumed): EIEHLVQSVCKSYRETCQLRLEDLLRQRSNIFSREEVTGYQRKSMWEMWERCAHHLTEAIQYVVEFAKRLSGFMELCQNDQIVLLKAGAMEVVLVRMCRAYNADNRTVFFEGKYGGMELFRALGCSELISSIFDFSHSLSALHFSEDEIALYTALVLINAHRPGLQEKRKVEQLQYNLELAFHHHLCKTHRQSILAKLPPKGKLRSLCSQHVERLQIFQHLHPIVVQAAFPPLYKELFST
# Method in brief: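 Compounds, titrated 4-fold from a 50 μM top concentration, were added with Ursolic acid to HEK293 cells carrying a RORγt-LBD plasmid and a reporter plasmid. After 24 h at 37° C, dual firefly/Renilla luciferase readout; four-parameter curves gave EC50 and maximal activation (Amax).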
# RORγt-LBD = target: T2, RORγt-LBD (Homo sapiens, UniProt P51449); test: Time-resolved fluorescence resonance energy-transfer assay (TR-FRET), co-activator peptide recruitment; type: biochemical; parameters: TR-FRET Biochemical Amax: unit not given here; conditions: for EC50: His-RORγt-LBD 30 nM, SRC peptide 500 nM, agonistic activity, averages of one or more measurements, read-out: TR-FRET Biochemical EC50/; for TR-FRET Biochemical Amax: upper activation limit, His-RORγt-LBD, SRC peptide
# T2 sequence (P51449 269-508 limits assumed): T1 sequence (P51449 269-508 limits assumed)
# Method in brief: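 This agonist-mode TR-FRET used 30 nM His-tagged RORγt-LBD, 500 nM biotinylated SRC peptide, 0.25 nM Eu-anti-His and 5 nM APC-streptavidin in pH 7.0 Tris/KCl buffer with DTT and Triton. A 7-concentration, 5-fold compound series was incubated at 4 °C overnight plus 1 h at room temperature, and the 665/615 nm signal was read.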
Structure (SMILES),EC50 (RORγt),Cellular Reporter Assay Amax (RORγt),EC50 (RORγt-LBD),TR-FRET Biochemical Amax (RORγt-LBD)
"O=C(O)CN1CCN2c3ccc(/C=C/c4c(Cl)cccc4C(F)(F)F)cc3N(S(=O)(=O)c3cccc(OC(F)(F)F)c3)C[C@@H]2C1 [Example 86, (S,E)-2-(8-(2-chloro-6-(trifluoromethyl)styryl)-6-((3-(trifluoromethoxy)phenyl)sulfonyl)-1,2,4,4a,5,6-hexahydro-3H-pyrazino[1,2-a]quinoxalin-3-yl)acetic acid]",2340 nM,12.6,78.4 nM,0.69
"O=S(=O)(c1cc(C(F)(F)F)cnc1OCCO)N1C[C@@H]2CNCCN2c2ccc(-c3cc(F)cc(OC(F)F)c3)cc21 [Example 87, (S)-2-((3-((8-(3-(difluoromethoxy)-5-fluorophenyl)-1,2,3,4,4a,5-hexahydro-6H-pyrazino[1,2-a]quinoxalin-6-yl)sulfonyl)-5-(trifluoromethyl)pyridin-2-yl)oxy) ethan-1-ol]",≥ 50000 nM,,384 nM,0.96
"CC1(C)C=C(c2ccc3c(c2)N(S(=O)(=O)c2cc(C(F)(F)F)cnc2OCCO)C[C@@H]2CNCCN32)CC(C)(C)O1 [Example 88, (S)-2-((3-((8-(2,2,6,6-tetramethyl-3,6-dihydro-2H-pyran-4-yl)-1,2,3,4,4a,5-hexa hydro-6H-pyrazino[1,2-a]quinoxalin-6-yl)sulfonyl)-5-(trifluoromethyl)pyridin-2-yl)oxy)ethan-1-ol]",≥ 50000 nM,,191 nM,0.72
"CS(=O)(=O)N1CCN2c3ccc(-c4cc(F)cc(OC(F)F)c4)cc3N(S(=O)(=O)c3cc(C(F)(F)F)cnc3OCCO)C[C@@H]2C1 [Example 89, (S)-2-((3-((8-(3-(difluoromethoxy)-5-fluorophenyl)-3-(methylsulfonyl)-1,2,3,4,4a,5-hexahydro-6H-pyrazino[1,2-a]quinoxalin-6-yl)sulfonyl)-5-(trifluoromethyl)pyridin-2-yl)oxy)ethan-1-ol]",1090 nM,2.7,0.53 nM,0.40
"COC(=O)CN1CCN2c3ccc(-c4cc(F)cc(OC(F)F)c4)cc3N(S(=O)(=O)c3cc(C(F)(F)F)cnc3OCCO)C[C@@H]2C1 [Example 90, methyl (S)-2-(8-(3-(difluoromethoxy)-5-fluorophenyl)-6-((2-(2-hydroxyethoxy)-5-(trifluoromethyl)pyridin-3-yl)sulfonyl)-1,2,4,4a,5,6-hexahydro-3H-pyrazino[1,2-a]quinoxalin-3-yl)acetate]",368 nM,1.8,20.6 nM,0.86
"O=C(O)CN1CCN2c3ccc(-c4cc(F)cc(OC(F)F)c4)cc3N(S(=O)(=O)c3cc(C(F)(F)F)cnc3OCCO)C[C@@H]2C1 [Example 91, (S)-2-(8-(3-(difluoromethoxy)-5-fluorophenyl)-6-((2-(2-hydroxyethoxy)-5-(trifluoromethyl)pyridin-3-yl)sulfonyl)-1,2,4,4a,5,6-hexahydro-3H-pyrazino[1,2-a]quinoxalin-3-yl)acetic acid]",3760 nM,4.1,34.1 nM,0.47
"O=C(O)CN1CCN2c3ccc(-c4cc(F)cc(OC(F)F)c4)cc3N(S(=O)(=O)C3C=C(C(F)(F)F)C=NC3=O)C[C@@H]2C1 (stereo partly drawn) [Example 92, 2-((4aS)-8-(3-(difluoromethoxy)-5-fluorophenyl)-6-((2-oxo-5-(trifluoromethyl)-2,3-dihydropyridin-3-yl)sulfonyl)-1,2,4,4a,5,6-hexahydro-3H-pyrazino[1,2-a]quinoxalin-3-yl)acetic acid]",≥ 50000 nM,,848 nM,
"COc1ncc(C(F)(F)F)cc1S(=O)(=O)N1C[C@@H]2CN(CC(=O)O)CCN2c2ccc(-c3cc(F)cc(OC(F)F)c3)cc21 [Example 93, (S)-2-(8-(3-(difluoromethoxy)-5-fluorophenyl)-6-((2-methoxy-5-(trifluoromethyl)pyridin-3-yl)sulfonyl)-1,2,4,4a,5,6-hexahydro-3H-pyrazino[1,2-a]quinoxalin-3-yl)acetic acid]",264 nM,2.1,46.4 nM,0.51
"N#Cc1cccc(-c2ccc3c(c2)N(S(=O)(=O)c2cccc(C(F)(F)F)c2)C[C@@H]2CN(CC(=O)O)CCN32)c1F [Example 94, (S)-2-(8-(3-cyano-2-fluorophenyl)-6-((3-(trifluoromethyl)phenyl)sulfonyl)-1,2,4,4a,5,6-hexahydro-3H-pyrazino[1,2-a]quinoxalin-3-yl)acetic acid]",3550 nM,1.8,159 nM,0.27
"N#Cc1cc(F)cc(-c2ccc3c(c2)N(S(=O)(=O)c2cccc(C(F)(F)F)c2)C[C@@H]2CN(CC(=O)O)CCN32)c1 [Example 95, (S)-2-(8-(3-cyano-5-fluorophe-nyl)-6-((3-(trifluoromethyl)phe-nyl)sulfonyl)-1,2,4,4a,5,6-hexa-hydro-3H-pyrazino[1,2-a]quin-oxalin-3-yl)acetic acid]",649 nM,1.4,41.9 nM,0.40
"N#Cc1ccc(F)c(-c2ccc3c(c2)N(S(=O)(=O)c2cccc(C(F)(F)F)c2)C[C@@H]2CN(CC(=O)O)CCN32)c1 [Example 96, (S)-2-(8-(5-cyano-2-fluorophe-nyl)-6-((3-(trifluoromethyl)phe-nyl)sulfonyl)-1,2,4,4a,5,6-hexa-hydro-3H-pyrazino[1,2-a]quin-oxalin-3-yl)acetic acid]",2090 nM,1.2,31.4 nM,0.43
"N#Cc1cc(Cl)cc(-c2ccc3c(c2)N(S(=O)(=O)c2cccc(C(F)(F)F)c2)C[C@@H]2CN(CC(=O)O)CCN32)c1 [Example 97, (S)-2-(8-(3-chloro-5-cyanophe-nyl)-6-((3-(trifluoromethyl)phe-nyl)sulfonyl)-1,2,4,4a,5,6-hexa-hydro-3H-pyrazino[1,2-a]quinox-alin-3-yl)acetic acid]",605 nM,2.5,37 nM,0.61
"O=S(=O)(c1cccc(C(F)(F)F)c1)N1C[C@@H]2COCCN2c2ccc(-c3cc(F)cc(OC(F)F)c3)cc21 [Example 98, (R)-8-(3-(difluoromethoxy)-5-fluorophenyl)-6-((3-(trifluoromethyl)phenyl)sulfonyl)-1,2,4,4a,5,6-hexahydro-[1,4]oxazino[4,3-a]quinoxaline]",1540 nM,5.4,20.6 nM,0.75
O=S(=O)(c1cccc(C(F)(F)F)c1)N1C[C@H]2COCCN2c2ccc(-c3cc(F)cc(OC(F)F)c3)cc21 [Example 99],4840 nM,6.3,40.3 nM,0.74
"O=S(=O)(c1cccc(C(F)(F)F)c1)N1CC2CSCCN2c2ccc(-c3cc(F)cc(OC(F)F)c3)cc21 (stereo not drawn) [Example 100, 8-(3-(difluoromethoxy)-5-fluorophenyl)-6-((3-(trifluoromethyl)phenyl)sulfonyl)-1,2,4,4a,5,6-hexahydro-[1,4]thiazino[4,3-a]quinoxaline]",3450 nM,4.3,91.7 nM,0.84
"O=S(=O)(c1cccc(C(F)(F)F)c1)N1CC2C[S+]([O-])CCN2c2ccc(-c3cc(F)cc(OC(F)F)c3)cc21 (stereo not drawn) [Example 101, 8-(3-(difluoromethoxy)-5-fluorophenyl)-6-((3-(trifluoromethyl)phenyl)sulfonyl)-1,2,4,4a,5,6-hexahydro-[1,4]thiazino[4,3-a]quinoxaline 3-oxide]",913 nM,3.9,40.9 nM,0.45
"O=S1(=O)CCN2c3ccc(-c4cc(F)cc(OC(F)F)c4)cc3N(S(=O)(=O)c3cccc(C(F)(F)F)c3)CC2C1 (stereo not drawn) [Example 102, 8-(3-(difluoromethoxy)-5-fluorophenyl)-6-((3-(trifluoromethyl)phenyl)sulfonyl)-1,2,4,4a,5,6-hexahydro-[1,4]thiazino[4,3-a]quinoxaline 3,3-dioxide]",2150 nM,,809 nM,
"O=S(=O)(c1cccc(C(F)(F)F)c1)N1C[C@@H]2CC(F)CCN2c2ccc(-c3cc(F)cc(OC(F)F)c3)cc21 (stereo partly drawn) [Example 103, (6aS)-3-(3-(difluoromethoxy)-5-fluorophenyl)-8-fluoro-5-((3-(trifluoromethyl)phenyl)sulfonyl)-6,6a,7,8,9,10-hexahydro-5H-pyrido[1,2-a]quinoxaline]",1300 nM,2.7,41.1 nM,0.49
